Assays:
[1] = Intrinsic clearance in rat at 0.05 mg/kg, iv administered as cassette dose or 2 mg/kg, iv administered as single dose; settings: in vivo
[2] = target: Sodium channel protein type 8 subunit alpha (Homo sapiens, UniProt Q9UQD0); experiment: Inhibition of human Nav1.6 alpha expressed in HEK293 cells incubated for 5 mins with 6 consecutive train pulses to -10 mV at 0.1 Hz and holding potential of -65 mV by Qube-automated patch clamp assay; assay type: ADME, cell-based
[3] = target: Sodium channel protein type 9 subunit alpha (Homo sapiens, UniProt Q15858); experiment: Inhibition of human Nav1.7 alpha expressed in HEK293 cells incubated for 5 mins with 6 consecutive train pulses to -10 mV at 0.1 Hz and holding potential of -65 mV by Qube-automated patch clamp assay; assay type: cell-based
Sequence of Sodium channel protein type 9 subunit alpha (Q15858 whole entry): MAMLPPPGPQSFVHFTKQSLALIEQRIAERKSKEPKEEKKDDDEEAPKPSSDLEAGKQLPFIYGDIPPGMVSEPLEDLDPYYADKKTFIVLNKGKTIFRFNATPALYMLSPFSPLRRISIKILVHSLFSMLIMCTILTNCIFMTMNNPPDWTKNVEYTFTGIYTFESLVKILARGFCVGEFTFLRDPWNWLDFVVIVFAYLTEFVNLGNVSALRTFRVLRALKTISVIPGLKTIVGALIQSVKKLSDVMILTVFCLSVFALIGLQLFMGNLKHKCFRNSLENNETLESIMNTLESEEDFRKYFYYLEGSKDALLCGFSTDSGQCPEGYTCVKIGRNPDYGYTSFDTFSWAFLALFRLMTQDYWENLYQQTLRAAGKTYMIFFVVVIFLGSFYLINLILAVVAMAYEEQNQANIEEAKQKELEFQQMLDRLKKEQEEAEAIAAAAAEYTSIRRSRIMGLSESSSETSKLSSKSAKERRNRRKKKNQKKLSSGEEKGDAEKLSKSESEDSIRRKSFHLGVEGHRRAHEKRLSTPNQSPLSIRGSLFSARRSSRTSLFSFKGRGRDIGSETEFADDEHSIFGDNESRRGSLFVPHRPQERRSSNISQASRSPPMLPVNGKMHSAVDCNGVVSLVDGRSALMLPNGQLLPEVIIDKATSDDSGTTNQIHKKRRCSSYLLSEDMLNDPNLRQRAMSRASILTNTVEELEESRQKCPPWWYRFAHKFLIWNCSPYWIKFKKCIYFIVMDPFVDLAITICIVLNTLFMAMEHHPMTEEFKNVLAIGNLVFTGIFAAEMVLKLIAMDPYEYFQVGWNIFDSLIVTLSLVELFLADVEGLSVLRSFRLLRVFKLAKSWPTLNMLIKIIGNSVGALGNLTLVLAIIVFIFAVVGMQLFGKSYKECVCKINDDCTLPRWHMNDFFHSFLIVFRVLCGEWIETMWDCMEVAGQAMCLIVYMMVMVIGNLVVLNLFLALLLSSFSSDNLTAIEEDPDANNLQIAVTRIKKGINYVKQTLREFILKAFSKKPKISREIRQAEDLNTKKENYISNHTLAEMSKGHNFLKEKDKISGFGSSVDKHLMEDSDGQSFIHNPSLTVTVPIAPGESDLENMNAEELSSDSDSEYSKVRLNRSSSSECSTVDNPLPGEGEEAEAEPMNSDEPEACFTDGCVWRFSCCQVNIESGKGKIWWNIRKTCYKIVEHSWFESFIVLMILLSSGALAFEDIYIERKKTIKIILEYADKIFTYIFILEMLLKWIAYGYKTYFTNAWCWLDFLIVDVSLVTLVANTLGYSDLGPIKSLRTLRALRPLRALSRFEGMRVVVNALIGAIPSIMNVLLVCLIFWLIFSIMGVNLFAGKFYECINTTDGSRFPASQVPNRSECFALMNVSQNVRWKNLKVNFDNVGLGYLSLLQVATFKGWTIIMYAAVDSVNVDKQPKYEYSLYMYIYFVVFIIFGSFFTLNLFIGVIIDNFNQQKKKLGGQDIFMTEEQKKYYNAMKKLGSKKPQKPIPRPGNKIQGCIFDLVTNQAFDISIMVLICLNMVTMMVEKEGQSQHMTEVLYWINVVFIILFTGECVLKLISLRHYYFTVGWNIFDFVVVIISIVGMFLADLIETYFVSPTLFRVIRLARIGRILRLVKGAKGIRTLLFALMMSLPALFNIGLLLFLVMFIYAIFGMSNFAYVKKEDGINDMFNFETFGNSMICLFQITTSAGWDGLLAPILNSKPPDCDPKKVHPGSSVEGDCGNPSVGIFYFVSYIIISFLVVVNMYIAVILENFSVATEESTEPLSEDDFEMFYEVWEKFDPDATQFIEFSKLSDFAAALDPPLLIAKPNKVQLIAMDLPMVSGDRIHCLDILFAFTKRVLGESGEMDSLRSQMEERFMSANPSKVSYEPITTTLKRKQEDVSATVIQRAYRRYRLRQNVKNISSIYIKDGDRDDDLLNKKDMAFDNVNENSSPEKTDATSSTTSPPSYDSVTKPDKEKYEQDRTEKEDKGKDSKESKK

[4] = Apparent permeability in MDCK cells by Monolayer assay; assay type: ADME, cell-based, Canis lupus familiaris; settings: dog

Sequence of Sodium channel protein type 8 subunit alpha (Q9UQD0 whole entry): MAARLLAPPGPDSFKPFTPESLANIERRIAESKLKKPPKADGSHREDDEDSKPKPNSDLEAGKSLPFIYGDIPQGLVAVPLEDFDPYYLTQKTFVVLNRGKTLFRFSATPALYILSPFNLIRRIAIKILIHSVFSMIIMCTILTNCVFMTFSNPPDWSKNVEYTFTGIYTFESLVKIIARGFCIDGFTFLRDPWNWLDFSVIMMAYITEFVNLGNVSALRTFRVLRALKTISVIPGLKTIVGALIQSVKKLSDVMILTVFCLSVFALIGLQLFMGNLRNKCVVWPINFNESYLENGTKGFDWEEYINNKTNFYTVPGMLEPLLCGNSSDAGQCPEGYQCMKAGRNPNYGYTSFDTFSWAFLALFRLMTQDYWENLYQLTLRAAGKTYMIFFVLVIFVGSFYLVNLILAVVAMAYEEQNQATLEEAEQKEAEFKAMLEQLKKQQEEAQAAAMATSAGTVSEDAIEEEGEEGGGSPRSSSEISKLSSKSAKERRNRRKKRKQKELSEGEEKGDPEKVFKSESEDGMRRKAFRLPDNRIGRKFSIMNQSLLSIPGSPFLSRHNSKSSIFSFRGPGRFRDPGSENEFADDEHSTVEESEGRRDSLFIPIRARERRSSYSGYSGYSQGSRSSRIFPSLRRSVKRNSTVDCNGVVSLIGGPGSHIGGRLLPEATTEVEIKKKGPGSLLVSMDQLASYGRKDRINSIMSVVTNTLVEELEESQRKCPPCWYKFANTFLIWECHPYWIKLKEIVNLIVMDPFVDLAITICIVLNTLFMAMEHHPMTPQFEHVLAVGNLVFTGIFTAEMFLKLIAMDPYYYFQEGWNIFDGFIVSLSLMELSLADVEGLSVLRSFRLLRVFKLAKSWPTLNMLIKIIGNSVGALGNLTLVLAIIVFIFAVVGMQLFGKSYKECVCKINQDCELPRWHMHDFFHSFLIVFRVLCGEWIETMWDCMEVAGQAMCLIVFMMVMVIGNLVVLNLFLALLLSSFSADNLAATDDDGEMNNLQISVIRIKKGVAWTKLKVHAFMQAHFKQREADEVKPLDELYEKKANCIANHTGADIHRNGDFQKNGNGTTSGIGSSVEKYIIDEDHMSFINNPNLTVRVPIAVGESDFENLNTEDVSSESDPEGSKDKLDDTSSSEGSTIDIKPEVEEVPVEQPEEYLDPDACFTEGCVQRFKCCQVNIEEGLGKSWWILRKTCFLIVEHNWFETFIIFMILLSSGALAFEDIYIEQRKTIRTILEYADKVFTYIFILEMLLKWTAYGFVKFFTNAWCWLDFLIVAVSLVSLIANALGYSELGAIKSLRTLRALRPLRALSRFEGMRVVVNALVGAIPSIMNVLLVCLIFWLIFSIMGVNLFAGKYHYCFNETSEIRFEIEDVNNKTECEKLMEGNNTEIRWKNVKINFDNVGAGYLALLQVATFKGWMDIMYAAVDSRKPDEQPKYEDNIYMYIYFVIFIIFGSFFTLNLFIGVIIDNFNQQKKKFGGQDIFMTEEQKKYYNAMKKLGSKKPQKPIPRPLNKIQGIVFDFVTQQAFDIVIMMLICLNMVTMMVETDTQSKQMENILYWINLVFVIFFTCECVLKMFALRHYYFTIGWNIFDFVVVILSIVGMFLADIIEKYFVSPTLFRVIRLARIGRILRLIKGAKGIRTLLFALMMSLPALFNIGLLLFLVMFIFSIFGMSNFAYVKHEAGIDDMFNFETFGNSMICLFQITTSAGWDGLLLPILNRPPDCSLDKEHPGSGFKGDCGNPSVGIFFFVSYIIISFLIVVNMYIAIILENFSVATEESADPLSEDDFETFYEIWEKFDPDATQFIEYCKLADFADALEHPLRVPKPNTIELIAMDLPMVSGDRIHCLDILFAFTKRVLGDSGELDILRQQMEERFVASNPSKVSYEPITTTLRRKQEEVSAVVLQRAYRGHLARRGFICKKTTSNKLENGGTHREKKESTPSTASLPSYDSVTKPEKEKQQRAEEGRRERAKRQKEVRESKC

| SMILES | IC50 [2] | IC50 [3] | Papp [4] | CL [1] | IC50 ([2]; hek293) | IC50 ([3]; hek293) |
| --- | --- | --- | --- | --- | --- | --- |
| CN[C@H](CNc1cc(F)c(S(=O)(=O)Nc2ncc(F)s2)cc1Cl)C[Si](C)(C)C | 3130 nM | 44 nM | – | 30 L/h/kg | – | – |
| N[C@H](CNc1cc(F)c(S(=O)(=O)Nc2nccs2)cc1Cl)Cc1ccccc1 | > 34000 nM | > 34000 nM | – | – | – | – |
| CC1(CNc2cc(F)c(S(=O)(=O)Nc3nccs3)cc2Cl)CCCN1 (stereo in doubt; 4) | 2080 nM | 2970 nM | – | – | – | – |
| O=S(=O)(Nc1nccs1)c1cc(Cl)c(NCC2CCCN2)cc1F (stereo in doubt; 6) | > 34000 nM | > 34000 nM | – | – | – | – |
| O=S(=O)(Nc1nccs1)c1cc(Cl)c(NCC2CCCN2)cc1F (stereo in doubt; 7) | – | – | – | – | > 34000 nM | > 34000 nM |

Now from value to compound, other results behind:

| IC50 [2] | IC50 [3] | Papp [4] | SMILES | CL [1] | IC50 ([2]; hek293) | IC50 ([3]; hek293) |
| --- | --- | --- | --- | --- | --- | --- |
| 420 nM | 25 nM | 13 ×10⁻⁶ cm/s | O=S(=O)(Nc1nccs1)c1cc(Cl)c(NCC2(Cc3ccccc3)CCCN2)cc1F (stereo unspecified) | 349.8 L/h/kg | – | – |
| 860 nM | 900 nM | – | CC1(CNc2cc(F)c(S(=O)(=O)Nc3nccs3)cc2Cl)CCCN1 (stereo in doubt; 5) | – | – | – |
| > 34000 nM | > 34000 nM | – | CNC(C)(CNc1cc(F)c(S(=O)(=O)Nc2nccs2)cc1Cl)Cc1ccccc1 (stereo in doubt; 9) | – | – | – |
| – | 1140 nM | – | CNC(C)(CNc1cc(F)c(S(=O)(=O)Nc2nccs2)cc1Cl)Cc1ccccc1 (stereo in doubt; 10) | – | > 34000 nM | – |

Reference: ChEMBL document CHEMBL4706775, “Discovery of Arylsulfonamide Na1.7 Inhibitors: IVIVC, MPO Methods, and Optimization of Selectivity Profile” (ACS Med Chem Lett, 2021)
